Data reported in patent publication EP0366226A1, “Stabilized thiocarbonate solutions and the use thereof for controlling soil pests” (UNION OIL COMPANY OF CALIFORNIA, priority 1988, dated 1990).
Marks after values point to notes of the source that are not given here.

How the values were obtained:
[1] = Degradation time in sandy loam soil at different moisture (CS2 in air space by gas chromatography); format: physicochemical
Experimental: A sandy loam soil was placed in 1-liter glass bottles, fitted with stoppers having fluorocarbon liners and silicone rubber septa, to give a soil depth of about 4 cm. Water was added to the soil, in quantities to obtain 50 and 100 percent soil saturation. Thiocarbonate solution or carbon disulfide was then injected near the bottom of the soil layer, the bottles were promptly sealed, and the air space in the bottles was sampled at intervals with a syringe, for gas chromatographic analysis of CS₂. The results are summarized below, wherein degradation time is the number of hours required to achieve the maximum CS₂ concentration in the air space.

[2] = Rate of carbon disulfide loss from solutions on nitrogen bubbling (mass spectrometer); format: physicochemical; settings: undiluted (pure CS2; Ex. 1 100%)
Experimental: The rate at which carbon disulfide is lost from diluted ammonium thiocarbonate compositions was determined by bubbling nitrogen through the solutions and measuring the carbon disulfide content of the gas which leaves the solution using a mass spectrometer.
In the determination, the solution, corresponding to that of Example 1 (containing 14.1 percent by weight carbon disulfide), was compared to pure carbon disulfide, and to serial dilutions of the Example 1 solution with water, which were 10, 1 and 0.1 volume percent solutions of the original composition. The results are tabulated below, wherein k is the calculated first order rate constant for loss of carbon disulfide, and t is the solution half-life.

[3] = Effect of pH on production of CS2 from thiocarbonates in citrate-phosphate buffers (gas chromatography of air); format: physicochemical
Experimental: Pure carbon disulfide was also injected, for comparison. A syringe was used to periodically sample air in the bottle, and the air was analyzed by gas chromotography.

[4] = test system: tomato plants; assay: Greenhouse nematocide experiment, plant dry weight / phytotoxicity; format: in vivo; settings: Application 50 ppm; 37 days of growth
From the text: (§1) Eighty containers were used, each containing about 500 grams of sterilized sandy loam soil. Each container was given four 5-milliliter injections of extract from nematode-infested pepper roots, one inch below the soil surface, producing an initial population of 2000 root-knot nematode larvae per container.
(§2) Twenty treatments were replicated four times, each treatment consisting of solution injection into the soil at a two inch depth. The treatments included each of the six compositions from Example 3 at three levels, plus one level of the known nematocide 1,2-dibromo-3-chloropropane (DBCP), and a control with only water injected. After injection, each container was enclosed in a plastic bag and placed in the shade for three days. Upon removing the bags, the soils were aerated by stirring and were allowed to stand undisturbed for eight additional days. Following an additional aeration, a tomato seedling was planted in eac pot.
(§3) Each container received 25 milligrams nitrogen (as calcium nitrate) immediately after planting, followed by 2 grams of a slow release complete fertilizer. […] By use of a magnifying glass, the number of root galls was counted on each plant. […]
(§4) The results are shown in the following table, in which the "Application" represents milligrams of treatment per kilogram of soil, calculated as contained carbon disulfide for the Example 3 solutions. […]

[5] = test system: root-knot nematode larvae; assay: Greenhouse nematocide experiment with tomato plants, root gall count; format: in vivo; settings: Application 50 ppm; mean of four replicates; asterisk = statistically indistinguishable
From the text: as §1, §2, §3, §4

SMILES	Degradation Time ([1]; Soil Moisture 50 % of Saturation)	Degradation Time ([1]; Soil Moisture 100 % of Saturation)	k, first order rate constant for loss of carbon disulfide [2]	Half-life (minutes) for production of carbon disulfide ([3]; pH 5.2, 125 milligrams of thiocarbonate ion per liter)	Half-life (minutes) for production of carbon disulfide ([3]; pH 6.0)	Half-life (minutes) for production of carbon disulfide ([3]; pH 7.0)	Half-life (minutes) for production of carbon disulfide ([3]; pH 8.0, CaCS4 values above pH 7 called unreliable)	Dry Weight, Grams Roots [4]	Dry Weight, Grams Total [4]	Gall Count [5]
S=C=S [CS₂, carbon disulfide, reference compound]	3.5 h	3.5 h	2.0 h⁻¹	1 min	1 min	1 min	1 min	–	–	–
ClCC(Br)CBr (stereo not shown) [DBCP, 1,2-dibromo-3-chloropropane]	–	–	–	–	–	–	–	0.273 Grams	1.238 Grams	0*
